The source of these data is ChEMBL document CHEMBL1201862, “PubChem BioAssay data set” (2004).

The assay concerns the target Non-receptor tyrosine-protein kinase TYK2 (Homo sapiens, UniProt P29597). The format is functional.

The source made the active and inactive calls. Cut-off read from the data, not from the text of the source: actives have a measured Ki and inactives only a lower limit. Some results are limits rather than exact numbers.

Non-receptor tyrosine-protein kinase TYK2, sequence (P29597 whole entry): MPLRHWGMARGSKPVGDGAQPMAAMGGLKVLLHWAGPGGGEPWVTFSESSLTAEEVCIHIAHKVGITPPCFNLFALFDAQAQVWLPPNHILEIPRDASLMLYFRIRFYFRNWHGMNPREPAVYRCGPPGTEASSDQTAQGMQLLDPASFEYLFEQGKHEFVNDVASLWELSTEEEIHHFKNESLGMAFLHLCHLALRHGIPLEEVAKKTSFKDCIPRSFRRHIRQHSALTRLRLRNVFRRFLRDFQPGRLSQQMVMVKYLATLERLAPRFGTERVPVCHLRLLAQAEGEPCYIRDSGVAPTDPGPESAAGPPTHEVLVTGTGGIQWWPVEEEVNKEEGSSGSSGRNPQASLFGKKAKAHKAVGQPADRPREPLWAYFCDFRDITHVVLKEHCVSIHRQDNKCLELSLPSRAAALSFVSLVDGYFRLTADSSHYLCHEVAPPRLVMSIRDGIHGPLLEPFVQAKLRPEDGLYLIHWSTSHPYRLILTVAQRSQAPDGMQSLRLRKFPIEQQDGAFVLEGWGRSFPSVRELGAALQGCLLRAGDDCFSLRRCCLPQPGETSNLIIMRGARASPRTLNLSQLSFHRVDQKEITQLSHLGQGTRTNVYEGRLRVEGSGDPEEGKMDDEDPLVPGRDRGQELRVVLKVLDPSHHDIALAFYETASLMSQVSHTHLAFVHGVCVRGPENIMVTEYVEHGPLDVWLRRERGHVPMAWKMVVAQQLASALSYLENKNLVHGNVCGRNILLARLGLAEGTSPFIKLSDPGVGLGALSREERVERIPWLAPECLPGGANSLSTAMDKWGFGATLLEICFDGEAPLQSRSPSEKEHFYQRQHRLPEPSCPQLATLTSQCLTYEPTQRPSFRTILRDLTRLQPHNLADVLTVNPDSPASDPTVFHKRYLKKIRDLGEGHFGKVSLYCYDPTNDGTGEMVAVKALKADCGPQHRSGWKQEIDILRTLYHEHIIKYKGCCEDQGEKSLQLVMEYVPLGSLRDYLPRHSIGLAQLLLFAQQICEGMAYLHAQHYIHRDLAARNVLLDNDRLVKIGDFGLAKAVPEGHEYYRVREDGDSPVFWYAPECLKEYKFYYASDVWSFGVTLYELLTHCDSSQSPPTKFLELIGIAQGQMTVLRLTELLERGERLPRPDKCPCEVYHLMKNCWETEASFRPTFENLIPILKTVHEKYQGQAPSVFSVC

The term Ki denotes the equilibrium dissociation constant of an inhibitor or competing ligand from its target. `CN1CCN(c2nc(C3=C(c4c[nH]c5ccccc45)C(=O)NC3=O)c3ccccc3n2)CC1` [SOTRASTAURIN]: the Ki was > 2 µM (inactive).
